Test results reported in patent US7714135B2, “Tetrahydropyridothiophenes for the treatment of proliferative diseases such as cancer” (4SC AG, priority 2005, dated 2010).

Tests used:
[1] = tested on: RKO colon adenocarcinoma cells (RKOp27) arrested by the expression of ectopic p27Kip1; assay: Alamar Blue cell viability assay on RKOp27 cells arrested by Ponasterone A-induced p27Kip1 expression (cell cycle specific mode of action); type: cell-based; conditions: Homo sapiens, RKOp27 subclone induced with 10 μM Ponasterone A, 72 hours incubation, read-out: IC50 RKO p27 induced (arrested)
Protocol: To determine the cell cycle specific mode of action, subclones of RKO colon adenocarcinoma cells (RKOp27 or RKOp21 as described by Schmidt et al. in Oncogene 19, 2423-2429; 2000) are seeded into 96 well flat bottom plates at a density of 16000 cells per well in a volume of 50 μl per well in DMEM growth medium with 10% FCS containing 10 μM Ponasterone A. 24 hours after seeding the 50 μl each of the compound dilutions in DMEM medium are added into each well of the 96 Well plate. Each compound dilution is tested as quadruplicates. Wells containing untreated control cells are filled with 50 μl DMEM medium containing 1% DMSO. The cells are then incubated with the substances for 72 hours at 37° C. in a humidified atmosphere containing 5% carbon dioxide. To determine the viability of the cells, 10 μl of an Alamar Blue solution (Biosource) are added and the fluorescence was measured at an extinction of 544 nm and an emission of 590 nm. For the calculation of the cell viability the emission value from untreated cells is set as 100% viability and the emission rates of treated cells are set in relation to the values of untreated cells. Viabilities are expressed as % values. Viability is compared of proliferating cells grown in the absence of the inducer Ponasterone A, versus viability of cells arrested by the expression of ectopic p27Kip1 induced by Ponasterone A.

[2] = tested on: RKO (RKOp27) human colon adenocarcinoma cells; assay: Alamar Blue cell viability assay, anti-proliferative/cytotoxic activity on proliferating (uninduced) RKOp27 cells; type: cell-based; conditions: RKOp27 subclone without inducer, 72 hours incubation, read-out: IC50 RKO p27 uninduced (proliferating)
Protocol: The anti-proliferative/cytotoxic activity of the compounds described herein, can be tested on subclones of RKO (RKOp27) human colon adenocarcinoma cells (Schmidt et al., Oncogene 19, 2423-2429; 2000) using the Alamar Blue cell viability assay (described in O'Brien et al. Eur J Biochem 267, 5421-5426, 2000). The compounds are dissolved as 20 mM solutions in dimethylsulfoxide (DMSO) and subsequently diluted in semi-logarithmic steps. DMSO dilutions are further diluted 1:100 into Dulbecco's modified Eagle's medium (DMEM) containing 10% fetal calf serum to a final concentration twice as much as the final concentration in the test. RKO subclones are seeded into 96 well flat bottom plates at a density of 4000 cells per well in a volume of 50 μl per well. 24 hours after seeding the 50 μl each of the compound dilutions in DMEM medium are added into each well of the 96 Well plate. Each compound dilution is tested as quadruplicates. Wells containing untreated control cells are filled with 50 μl DMEM medium containing 1% DMSO. The cells are then incubated with the substances for 72 hours at 37° C. in a humidified atmosphere containing 5% carbon dioxide. To determine the viability of the cells, 10 μl of an Alamar Blue solution (Biosource) are added and the fluorescence is measured at an extinction of 544 nm and an emission of 590 nm. For the calculation of the cell viability the emission value from untreated cells is set as 100% viability and the emission rates of treated cells are set in relation to the values of untreated cells. Viabilities are expressed as % values.
The corresponding IC50 values of the compounds for anti-proliferative/cytotoxic activity are determined from the concentration-effect curves.
Representative IC50 values for anti-proliferation/cytotoxicity determined in the mentioned assay follow from the following table A, in which the numbers of the compound correspond to the numbers of the examples.

IC50 [1] [nM] | SMILES | IC50 [2] [nM]
> 100000 | N#Cc1c(NC(=O)CCc2ccco2)sc2c1CCN(C(=O)OCc1ccncc1)C2 [Example 44, 3-Cyano-2-(3-furan-2-yl-propanoylamino)-4,7-dihydro-5H-thieno[2,3-c]pyridine-6-carboxylic acid pyridin-4-ylmethyl ester] | ≤ 300
> 100000 | N#Cc1c(NC(=O)CCc2ccco2)sc2c1CCN(C(=O)OCCc1ccccn1)C2 [Example 45, 3-Cyano-2-(3-furan-2-yl-propanoylamino)-4,7-dihydro-5H-thieno[2,3-c]pyridine-6-carboxylic acid 2-pyridin-2-yl-ethyl ester] | ≤ 300
> 100000 | N#Cc1c(NC(=O)CCc2cccnc2)sc2c1CCN(C(=O)OCCc1ccccn1)C2 [Example 46, 3-Cyano-2-(3-pyridin-3-yl-propanoylamino)-4,7-dihydro-5H-thieno[2,3-c]pyridine-6-carboxylic acid 2-pyridin-2-yl-ethyl ester] | 300 to 2000
> 100000 | CCOC(=O)N1CCc2c(sc(NC(=O)CC(C)(C)c3ccccc3)c2C#N)C1 [Example 47, 3-Cyano-2-(3-methyl-3-phenyl-butanoylamino)-4,7-dihydro-5H-thieno[2,3-c]pyridine-6-carboxylic acid ethyl ester] | ≤ 300
> 100000 | CCOC(=O)N1CCc2c(sc(NC(=O)C3CC3c3ccco3)c2C#N)C1 (centres unmarked) [Example 48, 3-Cyano-2-{[1-(2-furan-2-yl-cyclopropyl)-methanoyl]-amino}-4,7-dihydro-5H-thieno[2,3-c]pyridine-6-carboxylic acid ethyl ester] | ≤ 300
> 100000 | N#Cc1c(NC(=O)CCc2ccccc2)sc2c1CCN(C(=O)OCCN1CCOCC1)C2 [Example 50, 3-Cyano-2-(3-phenyl-propanoylamino)-4,7-dihydro-5H-thieno[2,3-c]pyridine-6-carboxylic acid 2-morpholin-4-yl-ethyl ester] | ≤ 300
> 100000 | N#Cc1c(NC(=O)CCc2ccco2)sc2c1CCN(C(=O)OCCN1CCOCC1)C2 [Example 51, 3-Cyano-2-(3-furan-2-yl-propanoylamino)-4,7-dihydro-5H-thieno[2,3-c]pyridine-6-carboxylic acid 2-morpholin-4-yl-ethyl ester] | ≤ 300
> 100000 | N#Cc1c(NC(=O)CCc2ccccc2)sc2c1CCN(C(=O)OCCn1ccnc1)C2 [Example 54, 3-Cyano-2-(3-phenyl-propanoylamino)-4,7-dihydro-5H-thieno[2,3-c]pyridine-6-carboxylic acid 2-imidazol-1-yl-ethyl ester] | ≤ 300
> 100000 | N#Cc1c(NC(=O)CCc2ccco2)sc2c1CCN(C(=O)OCCO)C2 [Example 55, 3-Cyano-2-(3-furan-2-yl-propanoylamino)-4,7-dihydro-5H-thieno[2,3-c]pyridine-6-carboxylic acid 2-hydroxy-ethyl ester] | ≤ 300
> 100000 | N#Cc1c(NC(=O)CCc2ccccn2)sc2c1CCN(C(=O)OCCc1cccnc1)C2 [Example 107, 3-Cyano-2-(3-pyridin-2-yl-propanoylamino)-4,7-dihydro-5H-thieno[2,3-c]pyridine-6-carboxylic acid 2-pyridin-3-yl-ethyl ester] | 300 to 2000
